Reference: PubChem BioAssay (NCI)
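Briefly, cells in 96-well plates were exposed to five compound concentrations for 48 h, and endpoints were estimated by linear interpolation. Here, GI50 denotes the concentration required for 50% inhibition of growth. TGI: total growth inhibition.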

How the values were obtained:
Assay in all cases: NCI tumour cell line growth inhibition, 48 h
786-0 renal = system: 786-0 renal
A498 renal = system: A498 renal
ACHN renal = system: ACHN renal
BT-549 breast = system: BT-549 breast
CAKI-1 renal = system: CAKI-1 renal
DU-145 prostate = system: DU-145 prostate
EKVX NSCLC = system: EKVX NSCLC
HCT-15 colon = system: HCT-15 colon
HL-60(TB) leukemia = system: HL-60(TB) leukemia
HOP-92 NSCLC = system: HOP-92 NSCLC
HS 578T breast = system: HS 578T breast
IGROV1 ovarian = system: IGROV1 ovarian
MALME-3M melanoma = system: MALME-3M melanoma
MDA-MB-231 breast = system: MDA-MB-231 breast
MDA-MB-435 = system: MDA-MB-435
NCI-H226 lung = system: NCI-H226 lung
NCI-H23 lung = system: NCI-H23 lung
NCI-H522 lung = system: NCI-H522 lung
OVCAR-5 ovarian = system: OVCAR-5 ovarian
PC-3 prostate = system: PC-3 prostate
RPMI-8226 leukemia = system: RPMI-8226 leukemia
RXF 393 renal = system: RXF 393 renal
SF-268 CNS = system: SF-268 CNS
SF-539 CNS = system: SF-539 CNS
SK-MEL-28 melanoma = system: SK-MEL-28 melanoma
SK-MEL-5 melanoma = system: SK-MEL-5 melanoma
SK-OV-3 ovarian = system: SK-OV-3 ovarian
SN12C renal = system: SN12C renal
SNB-19 CNS = system: SNB-19 CNS
SNB-75 CNS = system: SNB-75 CNS
SR leukemia = system: SR leukemia
TK-10 renal = system: TK-10 renal
UO-31 renal = system: UO-31 renal

Q: With `N=C(N)c1ccc(-c2ccc(-c3ccc(Cl)c(Cl)c3)o2)nc1` as the molecule, how does the GI50 (786-0 renal) read?
A: 1990 nM

Q: And the TGI (786-0 renal)?
A: 3830 nM

Q: And the GI50 (A498 renal)?
A: 9980 nM

Q: And the TGI (A498 renal)?
A: 28500 nM

Q: What about the GI50 (ACHN renal) of the same molecule?
A: 1740 nM

Q: And the TGI (ACHN renal)?
A: 3220 nM

Q: And the GI50 (BT-549 breast)?
A: 1610 nM

Q: What about the TGI (BT-549 breast) of the same molecule?
A: 3150 nM

Q: What about the GI50 (CAKI-1 renal) of the same molecule?
A: 1470 nM

Q: What about the TGI (CAKI-1 renal) of the same molecule?
A: 2850 nM

Q: What about the GI50 (DU-145 prostate) of the same molecule?
A: 1890 nM

Q: And the TGI (DU-145 prostate)?
A: 3620 nM

Q: What about the GI50 (EKVX NSCLC) of the same molecule?
A: 1860 nM

Q: What about the TGI (EKVX NSCLC) of the same molecule?
A: 3760 nM

Q: What about the GI50 (HCT-15 colon) of the same molecule?
A: 1770 nM

Q: What about the TGI (HCT-15 colon) of the same molecule?
A: 3530 nM

Q: And the GI50 (HL-60(TB) leukemia)?
A: 2240 nM

Q: And the TGI (HL-60(TB) leukemia)?
A: 5090 nM

Q: What about the GI50 (HOP-92 NSCLC) of the same molecule?
A: 1410 nM

Q: What about the TGI (HOP-92 NSCLC) of the same molecule?
A: 2970 nM

Q: And the GI50 (HS 578T breast)?
A: 1890 nM

Q: What about the TGI (HS 578T breast) of the same molecule?
A: 4360 nM

Q: What about the GI50 (IGROV1 ovarian) of the same molecule?
A: 1860 nM

Q: And the TGI (IGROV1 ovarian)?
A: 3590 nM

Q: What about the GI50 (MALME-3M melanoma) of the same molecule?
A: 1780 nM

Q: And the TGI (MALME-3M melanoma)?
A: 3420 nM

Q: And the GI50 (MDA-MB-231 breast)?
A: 1640 nM

Q: And the TGI (MDA-MB-231 breast)?
A: 3380 nM

Q: What about the GI50 (MDA-MB-435) of the same molecule?
A: 1780 nM

Q: What about the TGI (MDA-MB-435) of the same molecule?
A: 3250 nM

Q: What about the GI50 (NCI-H226 lung) of the same molecule?
A: 15400 nM

Q: What about the TGI (NCI-H226 lung) of the same molecule?
A: 49900 nM

Q: And the GI50 (NCI-H23 lung)?
A: 2020 nM

Q: And the TGI (NCI-H23 lung)?
A: 4590 nM

Q: What about the GI50 (NCI-H522 lung) of the same molecule?
A: 1860 nM

Q: What about the TGI (NCI-H522 lung) of the same molecule?
A: 4360 nM

Q: What about the GI50 (OVCAR-5 ovarian) of the same molecule?
A: 1570 nM

Q: And the TGI (OVCAR-5 ovarian)?
A: 3010 nM

Q: And the GI50 (PC-3 prostate)?
A: 1720 nM

Q: What about the TGI (PC-3 prostate) of the same molecule?
A: 3290 nM

Q: And the GI50 (RPMI-8226 leukemia)?
A: 2330 nM

Q: And the TGI (RPMI-8226 leukemia)?
A: 5190 nM

Q: What about the GI50 (RXF 393 renal) of the same molecule?
A: 1650 nM

Q: And the TGI (RXF 393 renal)?
A: 3580 nM

Q: And the GI50 (SF-268 CNS)?
A: 2080 nM

Q: What about the TGI (SF-268 CNS) of the same molecule?
A: 4730 nM

Q: And the GI50 (SF-539 CNS)?
A: 1630 nM

Q: What about the TGI (SF-539 CNS) of the same molecule?
A: 3040 nM

Q: What about the GI50 (SK-MEL-28 melanoma) of the same molecule?
A: 1760 nM

Q: And the TGI (SK-MEL-28 melanoma)?
A: 3340 nM

Q: What about the GI50 (SK-MEL-5 melanoma) of the same molecule?
A: 1740 nM

Q: What about the TGI (SK-MEL-5 melanoma) of the same molecule?
A: 3150 nM

Q: And the GI50 (SK-OV-3 ovarian)?
A: 1530 nM

Q: And the TGI (SK-OV-3 ovarian)?
A: 3230 nM

Q: And the GI50 (SN12C renal)?
A: 1740 nM

Q: And the TGI (SN12C renal)?
A: 3520 nM

Q: And the GI50 (SNB-19 CNS)?
A: 1840 nM

Q: What about the TGI (SNB-19 CNS) of the same molecule?
A: 3700 nM

Q: And the GI50 (SNB-75 CNS)?
A: 1350 nM

Q: And the TGI (SNB-75 CNS)?
A: 2690 nM

Q: What about the GI50 (SR leukemia) of the same molecule?
A: 559 nM

Q: What about the TGI (SR leukemia) of the same molecule?
A: > 100000 nM

Q: And the GI50 (TK-10 renal)?
A: 2030 nM

Q: What about the TGI (TK-10 renal) of the same molecule?
A: 3770 nM

Q: And the GI50 (UO-31 renal)?
A: 1500 nM

Q: What about the TGI (UO-31 renal) of the same molecule?
A: 2970 nM
